Like-named read-outs stand apart in the source and are kept apart here.
Legend:
A1 adenosine receptor = biological target: T1, A1 adenosine receptor (Mesocricetus auratus, UniProt A0A1U8BVR4); experiment: [35S]GTPγS binding assay, A1-agonist stimulated; format: biochemical, hamster; settings: […], agonist stimulated [35S]GTPγS binding, CPA = 100%
T1 construct: endogenous in cells; host or cells: DDT1 (DDT1 MF-2) hamster vas deferens smooth muscle cells
T1 sequence (A0A1U8BVR4 1-326): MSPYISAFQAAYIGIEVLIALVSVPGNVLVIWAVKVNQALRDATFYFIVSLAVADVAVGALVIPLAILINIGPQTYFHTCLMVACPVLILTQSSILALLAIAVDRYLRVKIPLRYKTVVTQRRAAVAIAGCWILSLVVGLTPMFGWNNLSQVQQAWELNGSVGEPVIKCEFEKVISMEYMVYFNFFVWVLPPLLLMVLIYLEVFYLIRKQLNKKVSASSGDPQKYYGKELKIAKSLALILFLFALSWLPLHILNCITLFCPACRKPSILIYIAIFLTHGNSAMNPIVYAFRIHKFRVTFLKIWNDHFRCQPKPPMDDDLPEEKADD
Protocol: (§1) Attached cells were washed twice with HBSS (2×10 ml), scraped free of the plate with the aid of a rubber policeman in 5 ml of 50 mM Tris-HCI buffer pH 7.4 at 4° C. and the suspension homogenized for 10 s. The suspension was then centrifuged at 27,000×g for 10 min. The pellet was resuspended in homogenization buffer by vortexing and centrifuged as described above. The final pellet was resuspended in 1 vol of 50 mM Tris-HCI buffer pH 7.4 containing 5 mM MgCl2 for A1 AdoR assays. For the [^35S]GTPγS binding assay the final pellet was resuspended in 50 mM Tris-HCI pH 7.4 containing 5 mM MgCl2, 100 mM NaCl and 1 mM dithiothreitol. This membrane suspension was then placed in liquid nitrogen for 10 min, thawed and used for assays. The protein content was determined by the method of Bradford (1976) using bovine serum albumin as standard.
A1-agonist stimulated [^35S]GTPγS binding was determined by a modification of the method described by Giersckik et al. (1991) and Lorenzen et al. (1993). […] Nonspecific binding was determined by the addition of 10 μM GTPγS. […] Previous reports have shown that agonist stimulated [^35S]GTPγS binding was dependent on the presence of GDP (Gierschik et al., 1991; Lorenzen et al., 1993; Traynor & Nahorski, 1995). […] In saturation experiments, 0.5 nM [^35S]GTPγS was incubated with 0.5-1000 nM GTPγS. At the end of the incubation, each suspension was filtered and the retained radioactivity determined as described above.

A1 receptor = biological target: T2, A1 receptor (Mesocricetus auratus, UniProt A0A1U8BVR4); experiment: Competitive binding assay, DDT1 cell membranes, [3H]CCPA; parameters: species or system hamster; settings: [3H]CCPA 2 nM
T2 construct: endogenous in cells; host or cells: DDT1 (DDT1 MF-2) hamster vas deferens smooth muscle cells
T2 sequence (A0A1U8BVR4 1-326): T1 sequence (A0A1U8BVR4 1-326)
Protocol: Cells were subcultured twice weekly by dispersion in Hank's Balanced Salt Solution (HBSS) without the divalent cations and containing 1 mM EDTA. The cells were then seeded in growth medium at a density of 1.2×10^5 cells per plate and experiments were performed 4 days later at approximately one day preconfluence.
as §1, with “assays.” for “assays. The protein content was determined by the method of Bradford (1976) using bovine serum albumin as standard.”
Competitive Binding Assay Pig striatum were prepared by homogenation in 50 mM Tris buffer (5× volume of tissue mass pH=7.4). After centrifilgation at 19,000 rpm for 25 minutes at 4° C., the supernatant was discarded, and the process was repeated twice. Compositions of this invention were assayed to determine their affinity for the A1 receptor in a pig striatum membrane prep or a DDT, membrane prep. Briefly, 0.2 mg of pig striatal membranes or DDT, cell membranes were treated with adenosine deaminase and 50 mM Tris buffer (pH=7.4) followed by mixing. To the pig membranes was added 2 μL of serially diluted DMSO stock solution of the compounds of this invention at concentrations ranging from 100 microM to 10 nM. The control received 2 microL of DMSO alone, then the antagonist [^3H] 8-cyclopentylxanthine (CPX) for pig striatum or the agonist [^3H] 2-chloro-6-cyclopentyladenosine (CCPA) for DDT, membranes in Tris buffer (50 mnM, pH of 7.4) was added to achieve a final concentration of 2 nM. After incubation at 23 C for 2 h, the solutions were filtered using a membrane harvester using multiple washing of the membranes (3×). The filter disks were counted in scintillation cocktail affording the amount of displacement of triated CPX or by the competitive binding compositions of this invention. In the case of the DDT1 cell membranes, some of the determinations of binding affinity (Ki) were made in the presence of Gpp(NH)p as noted in Table 1 (note: Gpp(NH)p shifts the receptor to a low affinity form). Greater than a 5 point curve was used to generate Ki's and the number of experiments is indicated in the column marked in Table 1 below.

[1] = DDT1 cell membranes, read-out: Ki-DDT1 cell membrane
[2] = in presence of Gpp(NH)p (low affinity form), read-out: Ki - DDT1 cell membrane In presence of Gpp (NH)p

SMILES: CNC(=S)NC[C@H]1O[C@@H](n2cnc3c(N[C@@H]4CCOC4)ncnc32)[C@H](O)[C@@H]1O [Compound 77, 2-{6[((3R)oxolan-3-yl)amino]purin-9-yl}(4S,2R,3R,5R)5-({[(methylamino)thioxomethyl]amino}methyl)oxolane-3,4diol]
- Emax (A1 adenosine receptor): 101%
- Ki (A1 receptor; [1]): 113 nM

SMILES: O[C@@H]1[C@H](O)[C@@H](CSC(=S)NC2CCCC2)O[C@H]1n1cnc2c(N[C@@H]3CCOC3)ncnc21 [Compound 75, 2-{6-[((3R)oxolan-3-yl)amino]purin-9-yl}(4S,5S,2R,3R)-5-{[(cyclopentylamino)thioxomethylthio]methyl}oxolane-3,4-diol]
- Emax (A1 adenosine receptor): 91%
- Ki (A1 receptor; [1]): 62 nM

SMILES: CC(C)NC(=O)OCC1OC(n2cnc3c(N[C@@H]4CCOC4)ncnc32)C(O)C1O (some centres unmarked) [Compound 32]
- Emax (A1 adenosine receptor): 91%
- Ki (A1 receptor; [2]): 431 nM

SMILES: CCCNC(=S)OC[C@H]1O[C@@H](n2cnc3c(N[C@@H]4CCOC4)ncnc32)[C@H](O)[C@@H]1O [Compound 49, 2-{6-[((3R)oxolan-3-yl)amino]purin-9-yl}(4S,2R,3R,5R)-5 {[(propylamino)thioxomethoxy]methyl}oxolane3,4-diol]
- Emax (A1 adenosine receptor): 89%
- Ki (A1 receptor; [2]): 145 nM

SMILES: O=C(O)CNC(=O)OC[C@H]1O[C@@H](n2cnc3c(N[C@@H]4CCOC4)ncnc32)[C@H](O)[C@@H]1O [Compound 68, 2-{[(5-{6-[((3R)oxolan-3-yl)amino]purin-9-yl}(3S,2R,4R,5R)-3,4-dihydroxyoxolan-2-yl)methoxy]carbonylamino}acetic acid]
- Emax (A1 adenosine receptor): 76%

SMILES: OC1C(COC(=S)N2CCCCC2)OC(n2cnc3c(N[C@@H]4CCOC4)ncnc32)C1O (some centres unmarked) [Compound 50]
- Emax (A1 adenosine receptor): 88%
- Ki (A1 receptor; [1]): 642 nM
- Ki (A1 receptor; [2]): 1950 nM

SMILES: C=CCNC(=S)OCC1OC(n2cnc3c(N[C@@H]4CCOC4)ncnc32)C(O)C1O (stereo partly drawn) [Compound 60, 2-{6-[((3R)oxolan-3-yl)amino]purin-9-yl}(4S,2R,3R,5R)-5-{[(prop-2-enylaminio)thioxomethoxy]methyl}oxolane3,4diol]
- Emax (A1 adenosine receptor): 77%
- Ki (A1 receptor; [2]): 239 nM

SMILES: O=C(NC1CCCCC1)OC[C@H]1O[C@@H](n2cnc3c(N[C@@H]4CCOC4)ncnc32)[C@H](O)[C@@H]1O [Compound 31, {(5-{6-[((3R)oxolan-3-yl)amino]purin-9-yl}(3S,2R,4R,5R)3,4-dihydroxyoxolan-2-yl)methoxy]-N-cyclohexylcarboxamide]
- Ki (A1 receptor; [2]): 1090 nM

SMILES: CN(C)C(=O)OC[C@H]1O[C@@H](n2cnc3c(N[C@@H]4CCOC4)ncnc32)[C@H](O)[C@@H]1O [Compound 44, {(5-{6-[((3R)oxolan-3-yl)amino]purin-9-yl}(3S,2R,4R,5R)-3,4-dihydroxyoxolan-2-yl)methoxy]-N,N-dimethylcarboxamide]
- Ki (A1 receptor; [2]): 1840 nM

SMILES: O=C(NCc1ccccc1)OC[C@H]1O[C@@H](n2cnc3c(N[C@@H]4CCOC4)ncnc32)[C@H](O)[C@@H]1O [Compound 29, [(5-{6-[((3R)oxolan-3-yl)amino]purin-9-yl}(3S,2R,4R,5R)-3,4dihydroxyoxolan-2-yl)methoxy]-N-benzylcarboxamide]
- Ki (A1 receptor; [2]): 478 nM

SMILES: OC1C(COC(=S)NC2CCCCC2)OC(n2cnc3c(N[C@@H]4CCOC4)ncnc32)C1O (some centres unmarked) [Compound 55]
- Emax (A1 adenosine receptor): 82%
- Ki (A1 receptor; [1]): 252 nM
- Ki (A1 receptor; [2]): 962 nM

SMILES: O=C(O)CCNC(=O)OCC1OC(n2cnc3c(N[C@@H]4CCOC4)ncnc32)C(O)C1O (some centres unmarked) [Compound 67]
- Emax (A1 adenosine receptor): 59%
- Ki (A1 receptor; [1]): 2220 nM

SMILES: CCCCNC(=O)OCC1OC(n2cnc3c(N[C@@H]4CCOC4)ncnc32)C(O)C1O (some centres unmarked) [Compound 27]
- Emax (A1 adenosine receptor): 44%
- Ki (A1 receptor; [1]): 1610 nM
- Ki (A1 receptor; [2]): 111 nM

SMILES: CNC(=S)OC[C@H]1O[C@@H](n2cnc3c(N[C@@H]4CCOC4)ncnc32)[C@H](O)[C@@H]1O [Compound 45, 2-{6-[((3R)oxolan-3-yl)amino]purin-9-yl}(4S,2R,3R,5R)-5 {1(methylamino)thioxomethoxylmethyl}oxolane3,4diol]
- Emax (A1 adenosine receptor): 77%
- Ki (A1 receptor; [2]): 141 nM

SMILES: OC1C(CNC(=S)NC2CCCC2)OC(n2cnc3c(NC4CCOC4)ncnc32)C1O [Compound 78, 2-{6-[((3R)oxolan-3-yl)amino]purin-9-yl}(4S,2R,3R,5R)-5-({[(cyclopentylamnino)thioxomethyl]amino}methyl)oxolane3,4diol]
- Emax (A1 adenosine receptor): 95%
- Ki (A1 receptor; [1]): 357 nM

SMILES: OC1C(COC(=S)NCc2ccccc2)OC(n2cnc3c(N[C@@H]4CCOC4)ncnc32)C1O (some centres unmarked) [Compound 54]
- Emax (A1 adenosine receptor): 93%
- Ki (A1 receptor; [2]): 229 nM

SMILES: CCCNC(=O)OCC1OC(n2cnc3c(N[C@@H]4CCOC4)ncnc32)C(O)C1O (some centres unmarked) [Compound 26]
- Emax (A1 adenosine receptor): 73%
- Ki (A1 receptor; [2]): 513 nM

SMILES: CNC(=O)SC[C@H]1O[C@@H](n2cnc3c(N[C@@H]4CCOC4)ncnc32)[C@H](O)[C@@H]1O [Compound 22, [(5-{6-[((3R)oxolan-3-yl)amino]purin-9-yl}(2S,3S,4R,5R)-3,4&hydroxyoxolan-2-yl)methythio]-N-methylcarboxamide]
- Emax (A1 adenosine receptor): 98%
- Ki (A1 receptor; [1]): 36 nM

SMILES: O=C(NC[C@H]1O[C@@H](n2cnc3c(N[C@@H]4CCOC4)ncnc32)[C@H](O)[C@@H]1O)NC1CCCC1 [Compound 76, N-[(5-{6[((3R)oxolan-3yl)amino]purin-9-yl}(3S,2R,4R,5R)3,4-dihydroxyoxolan-2-yl)methyl](cyclopentylamino)carboxamide]
- Ki (A1 receptor; [1]): 11600 nM

SMILES: CCNC(=O)OC[C@H]1O[C@@H](n2cnc3c(N[C@@H]4CCOC4)ncnc32)[C@H](O)[C@@H]1O [Compound 25, [(5-{6-[((3R)oxolan-3-yl)amino]purin-9-yl}(3S,2R,4R,5R)-3,4-dihydroxyoxolan-2-yl)methoxy]-N-ethylcarboxamide]
- Ki (A1 receptor; [2]): 727 nM

SMILES: O=C(NC1CCCC1)OCC1OC(n2cnc3c(N[C@@H]4CCOC4)ncnc32)C(O)C1O (some centres unmarked) [Compound 28]
- Ki (A1 receptor; [1]): 32 nM
- Ki (A1 receptor; [2]): 808 nM

SMILES: O=C(NC1CC1)OCC1OC(n2cnc3c(N[C@@H]4CCOC4)ncnc32)C(O)C1O (some centres unmarked) [Compound 33]
- Ki (A1 receptor; [2]): 1710 nM

SMILES: O=C(NCc1ccc(F)cc1)OCC1OC(n2cnc3c(N[C@@H]4CCOC4)ncnc32)C(O)C1O (some centres unmarked) [Compound 30]
- Ki (A1 receptor; [1]): 2210 nM
- Ki (A1 receptor; [2]): 1730 nM

SMILES: O[C@@H]1[C@H](O)[C@@H](COC(=S)NC2CCCC2)O[C@H]1n1cnc2c(N[C@@H]3CCOC3)ncnc21 [Compound 51, 2-{6-[((3R)oxolan-3-yl)amino]purin-9-yl}(4S,2R,3R,5R)-5{[(cyclopentylamino)thioxomethoxy]methyl}oxolane3,4-diol]
- Ki (A1 receptor; [2]): 87 nM

SMILES: CCNC(=O)NCC1OC(n2cnc3c(NC4CCOC4)ncnc32)C(O)C1O [Compound 79, N-[(5-{16[((3R)oxolan-3-yl)amino]purin-9-yI}(3S,2R,4R,5R3,4-dihydroxyoxolan-2-yl)methyl](ethylamino)carboxamide]
- Ki (A1 receptor; [2]): 167 nM

Reference: US20020037872A1, “N6 heterocyclic 5' modified adenosine derivatives” (CV Therapeutics, Inc., priority 1999, published 2002)
